Assay results published in patent publication US20260374766A1, “METHODS FOR TREATING CANCER” (Antares Therapeutics, Inc., priority 2022, published 2026).
pIC50, pKd: −log10 of the molar value.

How the values were obtained:
[1] = tested on: H1299 p53 Y220C; assay: Cell Proliferation Assay (CellTiter-Glo, CTG), H1299 p53 Y220C (NClH1299-inducible p53 Y220C); format: cell-based; conditions: Homo sapiens, NCI-H1299, 120 h, NClH1299-inducible p53 Y220C cells, 5 days, CellTiter-Glo
Outline: (§1)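 NClH1299 lines stably transduced with Tet-inducible p53 Y220C or R273H, plus NUGC3, were treated with compound for 5 days at 250-500 cells/well. IC50 derived from CellTiter-Glo luminescent signal after 10 min room-temperature incubation.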

[2] = tested on: NUGC3 p53 Y220C; assay: Cell Proliferation Assay (CellTiter-Glo, CTG), NUGC3 p53 Y220C; format: cell-based; conditions: Homo sapiens, NUGC-3, 120 h, NUGC3 cells, 5 days, CellTiter-Glo
Outline: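 Tet-One inducible p53 Y220C or R273H constructs were stably introduced into NCI-H1299 by lentiviral transduction; NUGC3 was used as is. Cells (250-500 per well) were exposed to compound for 5 days, then CellTiter-Glo was added for 10 min at room temperature and IC50 was calculated from luminescence.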

[3] = target: T1, p53 Y220C mutant protein (amino acid residues 94-293) (Homo sapiens, UniProt P04637, Y220C); assay: Surface Plasmon Resonance (SPR) assay, Kd_kinetic; format: binding; conditions: SPR; p53 Y220C; read-out: SPR P53 Y220C KD kinetic
T1 construct: p53 Y220C mutant protein (amino acid residues 94-293)
Outline: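 Biacore 8K SPR; 16 or 20 °C; Tris 50 mM pH 7.5, NaCl 100 mM, DTT 1 mM, Brij35 0.01%, Tween-20 0.05%, DMSO 1%. Kd_kinetic by 1:1 fit.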

[4] = tested on: H1299 p53 R273H; assay: Cell Proliferation Assay (CellTiter-Glo, CTG), H1299 p53 R273H (NClH1299-inducible p53 R273H); format: cell-based; conditions: Homo sapiens, NCI-H1299, 120 h, NClH1299-inducible p53 R273H cells, 5 days, CellTiter-Glo
Outline: as §1

[5] = target: p53 Y220C (Homo sapiens, UniProt P04637, Y220C); assay: Luciferase Reporter Assay (Luc), p53 response element, NClH1299 cells with inducible p53 Y220C; format: cell-based; conditions: luciferase reporter, NClH1299 inducible p53 Y220C, 6 hour; for AC50: read-out: Luc P53 Y220C AC50
Outline: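 H1299 cells induced with 0.5 ug/mL doxycycline for 24 hours, then exposed to compound for 6 hours. p53 response-element luciferase read by One-Glo luminescence after 5 min shaking at room temperature.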

[6] = target: T1, p53 Y220C mutant protein (amino acid residues 94-293); assay: Thermal Shift Assay (TSA), dTM; format: binding; conditions: p53 Y220C, read-out: TSA P53 Y220C dTM; for ΔTm at 10 µM: 10 uM compound; for ΔTm at 100 µM: 100 uM compound
Outline: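 5 μM p53 Y220C (residues 94-293) incubated 3 h at 20 °C with 10 μM or 100 μM compound in 20 mM HEPES pH 7.4, 100 mM NaCl, 0.01% Pluronic F-127, 1% DMSO plus Sypro Orange. Melt from 30 to 50 °C at 0.03 °C/s; TM from Boltzmann two-state fit.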

CNC(=O)c1ccc(NCC#Cc2nn3c(N[C@@H]4CCN(C)C[C@@H]4F)cccc3c2SC(F)(F)F)c(OC)c1 [Example 223, 4-{[3-(7-{[(3S,4R)-3-fluoro-1-methylpiperidin-4-yl]amino}-3-[(trifluoromethyl)sulfanyl]pyrazolo[1,5-a]pyridin-2-yl)prop-2-yn-1-yl]amino}-3-methoxy-N-methylbenzamide]
pIC50 [1]: > 6.12
pIC50 [2]: > 6.12
pKd [3]: > 8.00
pIC50 [4]: ≤ 5.00
AC50 [5]: < 750 nM
Emax [5]: 80 to 90%
ΔTm at 10 µM [6]: ≥ 10 °C
ΔTm at 100 µM [6]: ≥ 10 °C

CNC(=O)c1ccc(NCC#Cc2nc3c(NC4COC4)cccn3c2SC(F)(F)F)c(OC)c1 [Example 225]
pIC50 [1]: 5.82 to 6.12
pIC50 [2]: 5.52 to 5.82
pKd [3]: 7.00 to 8.00
pIC50 [4]: ≤ 5.00
AC50 [5]: 750 to 1500 nM
Emax [5]: 80 to 90%
ΔTm at 10 µM [6]: 1 to 5 °C
ΔTm at 100 µM [6]: 5 to 10 °C

CNC(=O)c1ccc(OC)c(NCC#Cc2nn3c(N[C@@H]4CCN(C)C[C@@H]4F)cccc3c2SC(F)(F)F)c1 [Example 231]
pIC50 [1]: > 6.12
pIC50 [2]: > 6.12
pKd [3]: > 8.00
pIC50 [4]: 5.10 to 5.30
AC50 [5]: < 750 nM
Emax [5]: 80 to 90%
ΔTm at 10 µM [6]: ≥ 10 °C
ΔTm at 100 µM [6]: ≥ 10 °C

COc1cc(C(N)=O)ccc1NCC#Cc1nn2c(N[C@@H]3CCN(C)C[C@@H]3F)cccc2c1SC(F)(F)F [Example 233]
pIC50 [1]: > 6.12
pIC50 [2]: > 6.12
pKd [3]: > 8.00
pIC50 [4]: 5.00 to 5.10
AC50 [5]: < 750 nM
Emax [5]: 80 to 90%
ΔTm at 10 µM [6]: ≥ 10 °C

CNC(=O)c1ccc(OC)c(NCC#Cc2nn3c(N[C@@H]4CCN(C)C[C@@H]4F)cccc3c2SC(F)(F)F)n1 [Example 234]
pIC50 [1]: > 6.12
pIC50 [2]: > 6.12
pKd [3]: > 8.00
pIC50 [4]: 5.00 to 5.10
AC50 [5]: < 750 nM
Emax [5]: 80 to 90%
ΔTm at 10 µM [6]: ≥ 10 °C

CNC(=O)c1ccc(OC)c(NCC#Cc2nn3c(N[C@@H]4CCNC[C@@H]4F)cccc3c2SC(F)(F)F)c1 [Example 236]
pIC50 [1]: > 6.12
pIC50 [2]: > 6.12
pKd [3]: > 8.00
pIC50 [4]: 5.10 to 5.30
AC50 [5]: < 750 nM
Emax [5]: 80 to 90%
ΔTm at 10 µM [6]: ≥ 10 °C
ΔTm at 100 µM [6]: ≥ 10 °C

CNC(=O)c1ccc(OC)c(NCC#Cc2nn3c(N[C@@H]4CCNC[C@@H]4F)cccc3c2SC(F)(F)F)n1 [Example 237]
pIC50 [1]: > 6.12
pIC50 [2]: > 6.12
pKd [3]: > 8.00
pIC50 [4]: 5.10 to 5.30
AC50 [5]: < 750 nM
Emax [5]: 70 to 80%
ΔTm at 10 µM [6]: ≥ 10 °C

COc1cc(S(C)(=O)=O)ccc1NCC#Cc1nn2c(N[C@@H]3CCNC[C@@H]3F)cccc2c1SC(F)(F)F [Example 238]
pIC50 [1]: > 6.12
pIC50 [2]: > 6.12
pKd [3]: > 8.00
pIC50 [4]: 5.10 to 5.30
AC50 [5]: < 750 nM
Emax [5]: 80 to 90%
ΔTm at 10 µM [6]: ≥ 10 °C

CNC(=O)c1ccc(NCC#Cc2nc3c(N[C@@H]4CCN(C)C[C@@H]4F)cccn3c2SC(F)(F)F)c(C)c1 [Example 239]
pIC50 [1]: > 6.12
pIC50 [2]: > 6.12
pKd [3]: > 8.00
pIC50 [4]: 5.00 to 5.10
AC50 [5]: < 750 nM
Emax [5]: > 90%
ΔTm at 10 µM [6]: ≥ 10 °C
ΔTm at 100 µM [6]: ≥ 10 °C

CNC(=O)c1ccc(NCC#Cc2nc3c(NC4CCOCC4)cccn3c2SC(F)(F)F)c(OC)c1 [Example 241]
pIC50 [1]: > 6.12
pIC50 [2]: > 6.12
pKd [3]: 7.00 to 8.00
pIC50 [4]: 5.10 to 5.30
AC50 [5]: < 750 nM
Emax [5]: 80 to 90%
ΔTm at 10 µM [6]: 5 to 10 °C
ΔTm at 100 µM [6]: ≥ 10 °C

CNC(=O)c1ccc(NCC#Cc2nc3c(N[C@@H]4CCN(C)C4)cccn3c2SC(F)(F)F)c(OC)c1 [Example 242]
pIC50 [1]: > 6.12
pIC50 [2]: > 6.12
pKd [3]: > 8.00
pIC50 [4]: 5.10 to 5.30
AC50 [5]: 750 to 1500 nM
Emax [5]: 80 to 90%
ΔTm at 10 µM [6]: 5 to 10 °C
ΔTm at 100 µM [6]: ≥ 10 °C

CNC(=O)c1ccc(NCC#Cc2nc3c(N[C@H]4CCN(C)C4)cccn3c2SC(F)(F)F)c(OC)c1 [Example 243]
pIC50 [1]: 5.82 to 6.12
pIC50 [2]: 5.82 to 6.12
pKd [3]: > 8.00
pIC50 [4]: ≤ 5.00
AC50 [5]: 1500 to 3000 nM
Emax [5]: 70 to 80%
ΔTm at 10 µM [6]: 5 to 10 °C
ΔTm at 100 µM [6]: ≥ 10 °C
